Experimental data from ChEMBL document CHEMBL3797103, “Synthesis of a dansyl-labeled inhibitor of 17β-hydroxysteroid dehydrogenase type 3 for optical imaging” (Bioorg Med Chem Lett, 2016).

What was measured:
[1] = target: T1, 17-beta-hydroxysteroid dehydrogenase type 3 (Homo sapiens, UniProt P37058); assay: Inhibition of 17betaHSD3 (unknown origin) transfected in human LNCAP cells assessed as conversion of [14C]-4-androstene-3,17-dione into [14C]-testosterone after 3 hrs; type: cell-based
T1 sequence (P37058 whole entry): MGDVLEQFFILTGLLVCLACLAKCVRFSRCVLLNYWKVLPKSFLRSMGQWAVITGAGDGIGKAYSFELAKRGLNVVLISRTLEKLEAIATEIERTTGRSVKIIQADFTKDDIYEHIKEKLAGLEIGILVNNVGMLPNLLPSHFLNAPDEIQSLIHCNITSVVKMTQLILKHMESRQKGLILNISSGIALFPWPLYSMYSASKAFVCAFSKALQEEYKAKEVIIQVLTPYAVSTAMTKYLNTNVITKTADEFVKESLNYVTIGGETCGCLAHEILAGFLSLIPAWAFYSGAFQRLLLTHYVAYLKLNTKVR

LNCaP [2] = assay: Drug uptake in wild type human LNCAP cells assessed as shape of the cells at 10 uM excited at 350 nm after 4 hrs by fluorescence confocal spinning disk microscopic analysis; type: ADME, cell-based
LNCaP [3] = assay: Drug uptake in 17betaHSD3 expressing human LNCAP cells at 3 to 50 uM after 4 hrs by flow cytometric analysis; type: ADME, cell-based
LNCaP [4] = assay: Drug localization in 17betaHSD3 expressing human LNCAP cell assessed as localized space around endoplasmic reticulum at 1 uM preincubated for 3 hrs followed by ER tracker addition for the last remaining hour by fluorescent microscopic analysis; type: ADME, cell-based
[5] = Drug localization in 17betaHSD3 expressing human LNCAP cell assessed as localised around lysosomes at 1 uM after 4 hrs by fluorescent microscopic analysis in the presence of lysosome tracker; type: ADME, cell-based
LNCaP [6] = assay: Drug uptake in 17betaHSD3 expressing human LNCAP cells assessed as mean fluorescence intensity at 30 uM after 4 hrs by flow cytometric analysis; type: ADME, cell-based
LNCaP [7] = assay: Drug uptake in 17betaHSD3 expressing human LNCAP cells assessed as shape of the cells at 10 uM excited at 350 nm after 4 hrs by fluorescence confocal spinning disk microscopic analysis; type: ADME, cell-based
LNCaP [8] = assay: Drug uptake in wild-type human LNCAP cells at 3 to 50 uM after 4 hrs by flow cytometric analysis; type: ADME, cell-based

Row | Compound | IC50 [1] [nM] | Drug uptake (LNCaP [2]) | Drug uptake (LNCaP [3]) | Drug uptake (LNCaP [4]) | Drug uptake [5] | Flu intensity (LNCaP [6]) | Drug uptake (LNCaP [7]) | Drug uptake (LNCaP [8])
1 | C[C@@H]1CN(S(=O)(=O)c2cccc3c(N(C)C)cccc23)[C@@H](C)CN1C[C@@]1(O)CC[C@@]2(C)[C@@H](CC[C@@H]3[C@@H]2CC[C@]2(C)C(=O)CC[C@@H]32)C1 | 262 | Not Active | Active | Active | Active | 4 | Active | Active
2 | C[C@@H]1CN(S(=O)(=O)c2ccccc2C(F)(F)F)[C@@H](C)CN1C[C@@]1(O)CC[C@@]2(C)[C@@H](CC[C@@H]3[C@@H]2CC[C@]2(C)C(=O)CC[C@@H]32)C1 | 85 |  |  |  |  |  |  | 
